Earlier results, collected in patent US7279573B2, “Amide derivatives” (Kaken Pharmaceutical Co., Ltd., priority 1997, dated 2007).

How the values were obtained:
[1] = tested on: growth hormone releasing; conditions: control compounds for pharmacophore development
[2] = human, in vivo

Compound	growth hormone releasing activity (active/inactive) [1]	oral bioavailability [2] [%]
CC(C)(N)CC(=O)N[C@H]1CCc2ccccc2N(Cc2ccc(-c3ccccc3-c3nn[nH]n3)cc2)C1=O [L-692,428]	inactive	–
GHRP-6	–	0.3
